Data taken from PMC8119466, “A screen of FDA-approved drugs identifies inhibitors of protein tyrosine phosphatase 4A3 (PTP4A3 or PRL-3)” (Scientific Reports, 2021).
Counter-ions that a name gives are not always drawn. Like-named read-outs stand apart in the source and are kept apart here.

Key:
Type in all cases: biochemical
recombinant PRL-3 = target: T1, recombinant PRL-3 (Homo sapiens, UniProt O75365); assay: In vitro phosphatase assay (DiFMUP hydrolysis), PRL-3; note: test concentration or dose not given here
T1 construct: 6xHis (N, cleaved yes); made in house; host or cells: E. coli One Shot BL21 Star
T1 sequence (O75365 whole entry): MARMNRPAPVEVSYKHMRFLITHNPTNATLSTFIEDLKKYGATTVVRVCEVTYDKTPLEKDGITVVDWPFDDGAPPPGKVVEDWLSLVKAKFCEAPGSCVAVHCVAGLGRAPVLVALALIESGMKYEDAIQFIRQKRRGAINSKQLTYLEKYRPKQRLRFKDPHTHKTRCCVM

recombinant PRL-2 = target: T2, recombinant PRL-2 (Homo sapiens, UniProt Q12974); assay: In vitro phosphatase assay (DiFMUP hydrolysis), PRL-2;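 note: PRL-2 activity read as DiFMUP hydrolysis after 20 min at room temperature with drug, enzyme first pre-reduced at 4 °C for 20 min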
T2 construct: 6xHis (N, cleaved yes); made in house; host or cells: E. coli One Shot BL21 Star
T2 sequence (Q12974 1-167): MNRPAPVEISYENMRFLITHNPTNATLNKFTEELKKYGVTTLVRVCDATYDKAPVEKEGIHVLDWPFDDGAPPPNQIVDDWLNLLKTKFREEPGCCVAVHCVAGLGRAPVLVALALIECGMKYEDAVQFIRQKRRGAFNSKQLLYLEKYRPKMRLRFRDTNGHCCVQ

recombinant PRL-1 = target: T3, recombinant PRL-1 (Homo sapiens, UniProt Q93096); assay: In vitro phosphatase assay (DiFMUP hydrolysis), PRL-1; note: test concentration or dose not given here
T3 construct: 6xHis (N, cleaved yes); made in house; host or cells: E. coli One Shot BL21 Star
T3 sequence (Q93096 1-173): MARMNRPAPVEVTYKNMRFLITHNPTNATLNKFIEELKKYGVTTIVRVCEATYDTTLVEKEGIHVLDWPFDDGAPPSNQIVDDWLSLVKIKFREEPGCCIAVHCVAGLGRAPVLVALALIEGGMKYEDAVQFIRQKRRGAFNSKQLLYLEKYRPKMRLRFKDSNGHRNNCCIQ

[1] = FDA-approved drug screen, compared to DMSO
[2] = FDA-approved drug screen, activity compared to DMSO

| SMILES | % Phosphatase Activity (compared to DMSO) PRL-3 (recombinant PRL-3; [1]) | % Phosphatase Activity (compared to DMSO) PRL-2 (recombinant PRL-2; [1]) | % Phosphatase Activity (compared to DMSO) PRL-1 (recombinant PRL-1; [1]) | also measured |
| --- | --- | --- | --- | --- |
| CC(C)C[C@H](NC(=O)[C@H](CCc1ccccc1)NC(=O)CN1CCOCC1)C(=O)N[C@@H](Cc1ccccc1)C(=O)N[C@@H](CC(C)C)C(=O)[C@@]1(C)CO1 [Carfilzomib (PR-171)] | 94% | 88% | 97% | – |
| CCC1(c2ccccc2)C(=O)NCNC1=O [Primidone] | 79% | 93% | 84% | – |
| CCN1CCN(C(=O)N[C@@H](C(=O)N[C@@H]2C(=O)N3C(C(=O)O)=C(CSc4nnnn4C)CS[C@H]23)c2ccc(O)cc2)C(=O)C1=O [Cefoperazone] | 89% | 94% | 100% | – |
| O=C(NC(Cc1cc(=O)[nH]c2ccccc12)C(=O)O)c1ccc(Cl)cc1 (stereo not drawn) [Rebamipide] | 92% | 93% | 88% | – |
| CCCSc1nc(N[C@@H]2C[C@H]2c2ccc(F)c(F)c2)c2nnn([C@@H]3C[C@H](OCCO)[C@@H](O)[C@H]3O)c2n1 [Ticagrelor] | – | – | – | % Phosphatase Activity (compared to DMSO) PRL-3 (recombinant PRL-3; [2]): 85%; % Phosphatase Activity (compared to DMSO) PRL-2 (recombinant PRL-2; [2]): 94%; % Phosphatase Activity (compared to DMSO) PRL-1 (recombinant PRL-1; [2]): 97% |
| CCN(CC)CCNC(=O)c1c(C)[nH]c(/C=C2\C(=O)Nc3ccc(F)cc32)c1C [Sunitinib] | – | – | – | % Phosphatase Activity (compared to DMSO) PRL-3 (recombinant PRL-3; [2]): 77%; % Phosphatase Activity (compared to DMSO) PRL-2 (recombinant PRL-2; [2]): 42%; % Phosphatase Activity (compared to DMSO) PRL-1 (recombinant PRL-1; [2]): 67% |
| CCCN(CCC)S(=O)(=O)c1ccc(C(=O)O)cc1 [Probenecid] | 84% | 114% | 110% | – |
| CC(C)C(=O)Nc1ccc([N+](=O)[O-])c(C(F)(F)F)c1 [Flutamide] | 77% | 76% | 81% | – |
| Cl.N=C(N)NCCC[C@H](N)C(=O)O [L-Arginine HCl (L-Arg)] | 104% | 91% | 82% | – |
| COC(=O)C1=C(C)NC(C)=C(C(=O)OC(C)(C)CN(C)CCC(c2ccccc2)c2ccccc2)C1c1cccc([N+](=O)[O-])c1.Cl (stereo not drawn) [Lercanidipine (hydrochloride)] | 84% | 101% | 87% | – |
| CN(C)CCN1C(=O)c2cccc3cc(N)cc(c23)C1=O [Amonafide] | 72% | 98% | 89% | – |
| O=C(O)CCC(=O)c1ccc(-c2ccccc2)cc1 [Fenbufen] | 90% | 103% | 98% | – |
| CC[C@@H](CO)NCCN[C@@H](CC)CO [Ethambutol HCl] | 93% | 111% | 99% | – |
| CN1CCN(c2nc(C3=C(c4c[nH]c5ccccc45)C(=O)NC3=O)c3ccccc3n2)CC1 [Sotrastaurin] | – | – | – | % Phosphatase Activity (compared to DMSO) PRL-3 (recombinant PRL-3; [2]): 85%; % Phosphatase Activity (compared to DMSO) PRL-2 (recombinant PRL-2; [2]): 89%; % Phosphatase Activity (compared to DMSO) PRL-1 (recombinant PRL-1; [2]): 83% |
| Cc1ncc([N+](=O)[O-])n1CC(O)CCl (stereo not drawn) [Ornidazole] | 84% | 102% | 104% | – |
| O=C1C(CC[S+]([O-])c2ccccc2)C(=O)N(c2ccccc2)N1c1ccccc1 (racemic) [(+/-)-Sulfinpyrazone] | 82% | 95% | 88% | – |
| COc1cc2nc(N(C)CCCNC(=O)C3CCCO3)nc(N)c2cc1OC (stereo not drawn) [Alfuzosin HCl] | 290% | 536% | 590% | – |
| CS(=O)(=O)c1ccc([C@@H](O)[C@@H](CF)NC(=O)C(Cl)Cl)cc1 [Florfenicol] | 75% | 111% | 100% | – |
| Cl.Cn1c(CCCC(=O)O)nc2cc(N(CCCl)CCCl)ccc21 [Bendamustine HCl] | 79% | 128% | 122% | – |
| Cc1noc(NS(=O)(=O)c2ccc(N)cc2)c1C [Sulfisoxazole] | – | – | – | % Phosphatase Activity (compared to DMSO) PRL-3 (recombinant PRL-3; [2]): 89%; % Phosphatase Activity (compared to DMSO) PRL-2 (recombinant PRL-2; [2]): 95%; % Phosphatase Activity (compared to DMSO) PRL-1 (recombinant PRL-1; [2]): 88% |

| SMILES | % Phosphatase Activity (compared to DMSO) PRL-3 (recombinant PRL-3; [1]) | % Phosphatase Activity (compared to DMSO) PRL-2 (recombinant PRL-2; [1]) | % Phosphatase Activity (compared to DMSO) PRL-1 (recombinant PRL-1; [1]) | also measured |
| --- | --- | --- | --- | --- |
| Cl.Cl.Fc1ccc(C(c2ccc(F)cc2)N2CCN(C/C=C/c3ccccc3)CC2)cc1 [Flunarizine 2HCl] | 101% | 107% | 111% | – |
| CN(C(=O)c1ccc(F)cc1C(F)(F)F)C1CCN(c2nnc(-c3ccnn3C)c3ccccc23)CC1 [Taladegib (LY2940680)] | – | – | – | % Phosphatase Activity (compared to DMSO) PRL-3 (recombinant PRL-3; [2]): 86%; % Phosphatase Activity (compared to DMSO) PRL-2 (recombinant PRL-2; [2]): 107%; % Phosphatase Activity (compared to DMSO) PRL-1 (recombinant PRL-1; [2]): 91% |
| CC1(C)[C@H](C(=O)O)N2C(=O)C[C@H]2S1(=O)=O [Sulbactam sodium] | – | – | – | % Phosphatase Activity (compared to DMSO) PRL-3 (recombinant PRL-3; [2]): 89%; % Phosphatase Activity (compared to DMSO) PRL-2 (recombinant PRL-2; [2]): 112%; % Phosphatase Activity (compared to DMSO) PRL-1 (recombinant PRL-1; [2]): 111% |
| CCCNC(=O)NS(=O)(=O)c1ccc(Cl)cc1 [Chlorpropamide] | 80% | 105% | 98% | – |
| COc1nc(C)nc(Cl)c1N=C1NCCN1 [Moxonidine] | 80% | 109% | 105% | – |
| Nc1cc(C(Cl)=C(Cl)Cl)c(S(N)(=O)=O)cc1S(N)(=O)=O [Clorsulon] | 92% | 115% | 98% | – |
| Nc1nc(N)nc(NC2CC2)n1 [Cyromazine] | 78% | 101% | 90% | – |
| O=C1CCc2cc(OCCCCc3nnnn3C3CCCCC3)ccc2N1 [Cilostazol] | 69% | 83% | 88% | – |
| CCC(COC(=O)c1cc(OC)c(OC)c(OC)c1)(c1ccccc1)N(C)C (stereo not drawn) [Trimebutine] | – | – | – | % Phosphatase Activity (compared to DMSO) PRL-3 (recombinant PRL-3; [2]): 84%; % Phosphatase Activity (compared to DMSO) PRL-2 (recombinant PRL-2; [2]): 106%; % Phosphatase Activity (compared to DMSO) PRL-1 (recombinant PRL-1; [2]): 90% |
| C=C[C@]1(C)C[C@@H](OC(=O)CSC(C)(C)CNC(=O)[C@H](N)C(C)C)[C@]2(C)[C@H](C)CC[C@]3(CCC(=O)[C@H]32)[C@@H](C)[C@@H]1O.Cl [Valnemulin HCl] | – | – | – | % Phosphatase Activity (compared to DMSO) PRL-3 (recombinant PRL-3; [2]): 80%; % Phosphatase Activity (compared to DMSO) PRL-2 (recombinant PRL-2; [2]): 95%; % Phosphatase Activity (compared to DMSO) PRL-1 (recombinant PRL-1; [2]): 86% |
| O=c1c(-n2ccnn2)c[nH]n1-c1cc(N2CCOCC2)ncn1 [Molidustat (BAY 85-3934)] | 84% | 74% | 90% | – |
| CN(C)[C@@H]1C(=O)C(C(N)=O)=C(O)[C@@]2(O)C(=O)C3=C(O)c4c(O)cccc4[C@@](C)(O)[C@H]3[C@H](O)[C@@H]12 [Oxytetracycline (Terramycin)] | 74% | 73% | 58% | – |
| C[C@H]1O[C@H](O[C@H]2[C@H](O)[C@@H](O)[C@@H](O[C@H]3[C@H](O)[C@@H](O)C(O)O[C@@H]3CO)O[C@@H]2CO)[C@H](O)[C@@H](O)[C@@H]1N[C@H]1C=C(CO)[C@@H](O)[C@H](O)[C@H]1O (stereo partly drawn) [Acarbose] | 73% | 102% | 94% | – |
| CN(C)CC/C=C1/c2ccccc2COc2ccc(CC(=O)O)cc21 [Olopatadine HCl] | 74% | 121% | 116% | – |
| CC(=O)OCC(COC(C)=O)OC(C)=O [Triacetin] | – | – | – | % Phosphatase Activity (compared to DMSO) PRL-3 (recombinant PRL-3; [2]): 85%; % Phosphatase Activity (compared to DMSO) PRL-2 (recombinant PRL-2; [2]): 96%; % Phosphatase Activity (compared to DMSO) PRL-1 (recombinant PRL-1; [2]): 93% |
| CCOc1nc2cccc(C(=O)O)c2n1Cc1ccc(-c2ccccc2-c2nc(=O)o[nH]2)cc1 [Azilsartan] | 101% | 130% | 111% | – |
| CSc1ccc2c(c1)N(CCC1CCCCN1C)c1ccccc1S2 (stereo not drawn) [Thioridazine HCl] | – | – | – | % Phosphatase Activity (compared to DMSO) PRL-3 (recombinant PRL-3): 97%; % Phosphatase Activity (compared to DMSO) PRL-2 (recombinant PRL-2): 104%; % Phosphatase Activity (compared to DMSO) PRL-1 (recombinant PRL-1): 95% |
| O[C@H]1[C@H](O)[C@@H](O)[C@H](O)[C@@H](O)[C@H]1O [i-Inositol] | 87% | 112% | 94% | – |
| CCN(CC)C(=S)SSC(=S)N(CC)CC [Disulfiram] | 78% | 100% | 103% | – |
